Results on two compounds are retold here after ChEMBL document CHEMBL1201862, “PubChem BioAssay data set” (2004).

Activity calls are given as the source filed them.

Assay [1] addresses T1, Heat shock factor protein 1 (Mus musculus, UniProt P38532).
T1 sequence (P38532 whole entry): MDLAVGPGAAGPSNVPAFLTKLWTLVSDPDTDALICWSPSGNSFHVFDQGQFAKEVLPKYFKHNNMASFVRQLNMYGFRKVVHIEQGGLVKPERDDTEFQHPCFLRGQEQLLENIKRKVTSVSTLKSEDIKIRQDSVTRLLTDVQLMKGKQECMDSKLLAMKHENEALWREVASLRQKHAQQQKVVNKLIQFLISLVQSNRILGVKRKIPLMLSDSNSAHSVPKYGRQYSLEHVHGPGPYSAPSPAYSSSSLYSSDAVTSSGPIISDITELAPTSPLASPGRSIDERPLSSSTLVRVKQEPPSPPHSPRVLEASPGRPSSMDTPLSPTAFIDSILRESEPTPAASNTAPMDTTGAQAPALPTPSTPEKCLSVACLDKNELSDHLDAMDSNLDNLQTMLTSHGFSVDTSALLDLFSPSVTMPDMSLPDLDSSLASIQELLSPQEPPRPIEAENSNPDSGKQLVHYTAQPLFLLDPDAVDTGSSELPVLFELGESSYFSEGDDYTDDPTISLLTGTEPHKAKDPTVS
Kind of assay: enhancement of HSF1-driven luciferase signal – cell-based, NIH3T3, luminescence, dose retest, confirmation (AID 435004).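 Note: stress induced by proteasome inhibitor MG132 added 30 min after compound; luciferase reporter driven by HSF1 response element in NIH3T3 cells; actives raise luminescence as potentiators of the MG132 stress response.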 It is filed as functional.

Assay [2] in a line: cells. It is filed as functional.
The target in assay [3] is Melanocortin receptor 4 (Homo sapiens, UniProt P32245). Kind of assay: inhibitors of MC4R cAMP signaling – cell-based, TR-FRET, biased antagonists, dose response (AID 602298).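 Note: antagonist potency against agonist-stimulated cAMP production.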 It is filed as functional. In general terms: Time-resolved FRET reads energy transfer from a long-lived donor to a nearby acceptor.
The nature of assay [4]: cAMP pathway inhibition in counterscreen cell line – TR-FRET cAMP detection, counter-screen for MC4R biased antagonist project, dose response (AID 602305).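 Note: U2OS cells stimulated with forskolin near its EC80 as the cAMP inducer; potency is for inhibition of forskolin-stimulated cAMP signaling.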 It is filed as functional, cell-based. For orientation: The purpose of a counterscreen is to sort out artefacts and off-target activity.
Assay [5] concerns the target T2, Histone-lysine N-methyltransferase NSD2 (Homo sapiens, UniProt O96028).
T2 sequence (O96028 whole entry): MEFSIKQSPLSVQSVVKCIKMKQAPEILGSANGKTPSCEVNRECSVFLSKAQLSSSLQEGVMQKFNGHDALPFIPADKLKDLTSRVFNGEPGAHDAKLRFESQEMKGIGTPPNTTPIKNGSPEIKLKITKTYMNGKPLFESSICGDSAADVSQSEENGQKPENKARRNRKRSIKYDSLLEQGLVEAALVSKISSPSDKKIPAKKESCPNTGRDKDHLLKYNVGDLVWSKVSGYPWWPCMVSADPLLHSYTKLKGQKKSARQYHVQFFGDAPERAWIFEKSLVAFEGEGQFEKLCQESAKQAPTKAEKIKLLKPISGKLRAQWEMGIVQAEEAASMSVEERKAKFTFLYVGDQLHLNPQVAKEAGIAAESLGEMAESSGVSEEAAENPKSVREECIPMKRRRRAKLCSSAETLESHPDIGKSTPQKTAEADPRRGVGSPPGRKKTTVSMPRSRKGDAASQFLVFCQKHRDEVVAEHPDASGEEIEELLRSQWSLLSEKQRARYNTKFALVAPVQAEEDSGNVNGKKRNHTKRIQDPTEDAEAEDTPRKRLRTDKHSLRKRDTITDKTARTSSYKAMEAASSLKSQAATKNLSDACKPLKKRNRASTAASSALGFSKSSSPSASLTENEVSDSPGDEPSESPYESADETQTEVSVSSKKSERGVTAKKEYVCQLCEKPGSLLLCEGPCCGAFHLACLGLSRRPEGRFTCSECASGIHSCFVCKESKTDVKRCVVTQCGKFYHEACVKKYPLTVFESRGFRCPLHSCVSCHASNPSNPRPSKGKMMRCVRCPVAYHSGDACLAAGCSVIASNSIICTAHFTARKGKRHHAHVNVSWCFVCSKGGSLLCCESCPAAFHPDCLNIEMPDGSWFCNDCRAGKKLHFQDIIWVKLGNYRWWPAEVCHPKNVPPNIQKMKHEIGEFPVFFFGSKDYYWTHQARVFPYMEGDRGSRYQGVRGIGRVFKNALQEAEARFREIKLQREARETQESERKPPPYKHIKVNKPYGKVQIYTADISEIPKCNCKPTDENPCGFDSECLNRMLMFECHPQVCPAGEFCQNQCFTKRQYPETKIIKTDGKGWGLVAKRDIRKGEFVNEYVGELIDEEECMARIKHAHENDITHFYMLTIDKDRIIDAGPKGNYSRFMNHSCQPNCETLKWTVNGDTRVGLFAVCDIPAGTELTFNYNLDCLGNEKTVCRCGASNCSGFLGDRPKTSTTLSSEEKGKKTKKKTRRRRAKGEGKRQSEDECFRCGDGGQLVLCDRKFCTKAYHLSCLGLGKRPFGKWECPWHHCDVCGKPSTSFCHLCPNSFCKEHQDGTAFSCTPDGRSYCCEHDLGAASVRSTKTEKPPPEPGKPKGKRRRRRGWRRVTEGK
It is filed as biochemical.

Assay [6] is described as follows: Vero cell cytotoxicity, dose response, cytotoxicity control for M. tuberculosis growth inhibitor project, Vero cells, purified and synthesized compounds, set 5 (AID 504909). It is filed as functional. The conditions noted are these: Mycobacterium tuberculosis.
Assay [7] is described as follows: Vero cell cytotoxicity, cytotoxicity control for M. tuberculosis inhibitor project, purified and synthesized samples, set 3 (AID 504684). It is filed as functional. As to conditions: […].
Assay [8] can be described thus: THP-1 cell cytotoxicity, cytotoxicity control, set 4 (AID 504911). It is filed as functional. The conditions noted are these: Mycobacterium tuberculosis.
A short description of assay [9]: THP-1 cell cytotoxicity, dose response, cytotoxicity control, set 3 (AID 504852). It is filed as functional. As to conditions: Mycobacterium tuberculosis.
Assay [10] is described as follows: Vero cell cytotoxicity, dose response, cytotoxicity control for M. tuberculosis growth inhibitor project, Vero cells, purified and synthesized compounds, set 4 (AID 504854). It is filed as functional. As to conditions: Mycobacterium tuberculosis.

Melanocortin receptor 4, sequence (P32245 whole entry): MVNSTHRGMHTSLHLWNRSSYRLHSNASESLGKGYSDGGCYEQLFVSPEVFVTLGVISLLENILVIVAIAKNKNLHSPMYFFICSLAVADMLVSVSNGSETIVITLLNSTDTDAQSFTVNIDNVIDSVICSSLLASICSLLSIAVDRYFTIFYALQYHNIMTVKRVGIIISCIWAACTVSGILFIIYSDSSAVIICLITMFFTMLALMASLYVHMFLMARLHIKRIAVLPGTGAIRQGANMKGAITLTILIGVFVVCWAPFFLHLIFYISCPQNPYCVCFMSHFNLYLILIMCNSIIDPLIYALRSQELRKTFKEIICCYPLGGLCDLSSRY

Broadly, the EC50 is the midpoint of the concentration-response curve. By IC50 is commonly meant the midpoint of a concentration-inhibition curve. For orientation: AC50 means the midpoint of the concentration-response curve, whichever way the signal moves. With `CC(C)Cn1c(N)c(C(=O)COC(=O)c2ccc([N+](=O)[O-])o2)c(=O)n(C)c1=O`, the 50% effective concentration (EC50) in assay [1] is 18.5 µM (active). Further, the IC50 is 1.57 µM (active) in [2], > 64.6 µM (inactive) in assay [3] and > 64.6 µM (inactive) in [4]. Also, the AC50 in assay [5] is > 20 µM (inactive).

One may read the CC50 as the concentration giving 50% cytotoxicity. In the case of `CCSc1nc(=O)c2ccccc2[nH]1`, the CC50 in assay [6], in [7], in assay [8], in [9] and in [10] was > 100 µM (active) in each case.
